Results reported in the NIST ThermoML archive (doi:10.1016/j.fluid.2011.06.011).
“And” between values parts separate entries of the source, which are not always exact repeats. Identical values can stand only once.

What was measured:
[1] = Liquid; for speed of sound: Sing-around technique in a fixed-path interferometer; for mass density: Vibrating tube method
[2] = refractive index (Na D-line) (dimensionless); conditions: 101.33 kPa, Liquid, Standard Abbe refractometry
[3] = xn = mol fraction of the nth substance listed; conditions: Liquid, x2 = 0; for speed of sound: Sing-around technique in a fixed-path interferometer; for mass density: Vibrating tube method
[4] = refractive index (Na D-line) (dimensionless); xn = mol fraction of the nth substance listed; conditions: 101 kPa, Liquid, Standard Abbe refractometry, x2 = 0

C=CC(C)(O)CCC=C(C)C (stereo not given) [3,7-dimethyl-1,6-octadien-3-ol]
[1]
Conditions | mass density, 101.33 kPa [kg/m3] | mass density, 20000 kPa [kg/m3] | mass density, 25000 kPa [kg/m3] | mass density, 30000 kPa [kg/m3] | mass density, 35000 kPa [kg/m3] | mass density, 40000 kPa [kg/m3] | speed of sound, 101 kPa [m/s] | speed of sound, 101.33 kPa [m/s]
283.15 K | 869.39 | 880.8 | 883.7 | 886.1 | 888.9 | 891.4 | 1370.6 | 1370.3
298.15 K | 857 | 869.4 | 872.3 | 875.2 | 877.9 | 880.6 | 1315.1 | 1313.1
313.15 K | 844.29 | 857.6 | 860.9 | 863.9 | 866.8 | 869.7 | – | 1260.8
328.15 K | 831.31 | 846 | 849.3 | 852.6 | 855.7 | 858.8 | – | 1207.6

[2]
Conditions | refractive index
283.15 K | 1.46659 and 1.4666
298.15 K | 1.45946
313.15 K | 1.45215
328.15 K | 1.44473

CCO [ethanol]
[1]
Conditions | mass density, 101 kPa [kg/m3] | mass density, 101.33 kPa [kg/m3] | mass density, 20000 kPa [kg/m3] | mass density, 25000 kPa [kg/m3] | mass density, 30000 kPa [kg/m3] | mass density, 35000 kPa [kg/m3] | mass density, 40000 kPa [kg/m3] | speed of sound, 101.33 kPa [m/s]
283.15 K | 798.28 | 798.27 | 812.8 | 816.5 | 819.8 | 823 | 826.1 | 1196.2
298.15 K | 785.46 | 785.45 | 801.5 | 805.3 | 808.8 | 812.2 | 815.5 | 1146.2
313.15 K | – | 772.39 | 789.8 | 794 | 797.4 | 801 | 804.8 | 1096.7
328.15 K | – | 758.93 | 777.8 | 782.2 | 786.3 | 790 | 793.9 | 1047

[2]
Conditions | refractive index
283.15 K | 1.36546
298.15 K | 1.35984
313.15 K | 1.35409
328.15 K | 1.34827

CCO [ethanol] + C=CC(C)(O)CCC=C(C)C
[3]
Conditions | mass density, 101 kPa [kg/m3] | mass density, 20000 kPa [kg/m3] | mass density, 25000 kPa [kg/m3] | mass density, 30000 kPa [kg/m3] | mass density, 35000 kPa [kg/m3] | mass density, 40000 kPa [kg/m3] | speed of sound, 101 kPa [m/s]
283.15 K | 798.28 | 812.8 | 816.5 | 819.8 | 823 | 826.1 | 1196.2
298.15 K | 785.46 | 801.5 | 805.3 | 808.8 | 812.2 | 815.5 | 1146.2
313.15 K | 772.39 | 789.8 | 794 | 797.4 | 801 | 804.8 | 1096.7
328.15 K | 758.93 | 777.8 | 782.2 | 786.3 | 790 | 793.9 | 1047

[4]
Conditions | refractive index
283.15 K | 1.36546
298.15 K | 1.35984
313.15 K | 1.35409
328.15 K | 1.34827
